# Results taken from patent US20110224240A1 (Myrexis, Inc., priority 2010, published 2011).
# pIC50: −log10 of the molar value.
# Assays:
# Experiment in all cases: Multidrug resistant cell assay, cytotoxicity
# P388 = assay type: cell-based, murine; conditions: Mus musculus; P388; 72 hours; read-out: Various MDR Cell Line Cytotoxicity IC50
# P388/ADR (MDR-1) = assay type: cell-based; conditions: 72 hours, read-out: Various MDR Cell Line Cytotoxicity IC50
# Description: P388/ADR cell lines were obtained from American Type Culture Collection (Manassas, Va.) and maintained in RPMI-1640 media supplemented with 10% FCS, 10 units/ml penicillin and streptomycin, 2 mM Glutamax and 1 mM sodium pyruvate (Invitrogen Corporation, Carlsbad, Calif.). […] Cells were allowed to adhere to the plate overnight and then incubated with the compound at final concentrations ranging from 0.13 nM to 10 uM for 72 hours. Cell viability was then assessed using the ATP-lite reagent (Perkin Elmer, Foster City, Calif.). Plates were read on a Wallac Topcount luminescence reader (Perkin Elmer, Foster City, Calif.) and the results graphed in Prism software (Graphpad Software, Inc., San Diego, Calif.). Non-linear regression with variable slope analysis was performed to obtain IC50 concentration values.
# MCF-7 = assay type: cell-based; conditions: Homo sapiens, MCF7, 72 h, read-out: Various MDR Cell Line Cytotoxicity IC50
# NCI/ADR-Res (MDR-1) = conditions: 72 h, read-out: Various MDR Cell Line Cytotoxicity IC50
# MCF-7/VP (MRP-1) = conditions: Homo sapiens, MCF7-VP, 72 h, read-out: Various MDR Cell Line Cytotoxicity IC50
# MCF-7/MX (BCRP-1) = assay type: cell-based; conditions: MCF7/MX, 72 h, read-out: Various MDR Cell Line Cytotoxicity IC50
smiles,measurement,setting,value
"CC(=O)O[C@@]12CO[C@@H]1C[C@H](O)[C@@]1(C)C(=O)[C@H](O)C3=C(C)[C@@H](OC(=O)[C@H](O)[C@@H](NC(=O)OC(C)(C)C)c4ccccc4)C[C@@](O)([C@@H](OC(=O)c4ccccc4)[C@H]21)C3(C)C [Docetaxel, docetaxel]",pIC50,P388,8.48
same,pIC50,P388/ADR (MDR-1),6.70
same,pIC50,MCF-7,7.89
same,pIC50,NCI/ADR-Res (MDR-1),6.05
"CC[C@]1(O)C[C@@H]2CN(CCc3c([nH]c4ccccc34)[C@@](C(=O)OC)(c3cc4c(cc3OC)N(C)[C@H]3[C@@](O)(C(=O)OC)[C@H](OC(C)=O)[C@]5(CC)C=CCN6CC[C@]43[C@@H]65)C2)C1 [Vinblastine, vinblastine]",pIC50,P388,9.30
same,pIC50,P388/ADR (MDR-1),8.08
same,pIC50,MCF-7,8.85
same,pIC50,NCI/ADR-Res (MDR-1),7.00
"COc1cccc2c1C(=O)c1c(O)c3c(c(O)c1C2=O)C[C@@](O)(C(=O)CO)C[C@@H]3O[C@H]1C[C@H](N)[C@@H](O)[C@H](C)O1 [Epirubicin, epirubicin, reference compound]",pIC50,MCF-7/VP (MRP-1),5.68
same,pIC50,MCF-7/MX (BCRP-1),6.40
same,pIC50,MCF-7,6.80
